From patent US20070078172A1, “MAO-B INHIBITORS USEFUL FOR TREATING OBESITY” (JENRIN DISCOVERY, priority 2005, published 2007)

Experiments:
[1] = Body weight and food intake in rats dosed for 14 weeks; format: in vivo, rat
Method: (§1) Single-housed rats weighing 230-350 grams at the start of the experiment were provided free access to laboratory rodent chow pellets and tap water. Rats were divided into two groups, eight rats per group, matched for food intake and body weight over a two week baseline period. […] The second group of rats (control rats) was similarly administered drug vehicle (0.25% methyl cellulose solution). Body weight and food intake were measured once a week for 14 weeks.

[2] = Terminal carcass composition (lipid, water, fat free dry weight); format: in vivo, rat; conditions: 10.0 mg/kg orally once daily
Method: as §1
Terminal carcass composition was measured. Shaved, eviscerated rats were coarsely ground and dried to a constant weight at 70° C. Dehydrated carcasses were finely ground in a blender. Lipid was extracted from a homogeneous sample with petroleum ether. Water and lipid contents were determined gravimetrically, and the remaining carcass component was termed fat free dry weight.

[3] = test system: Plasma leptin; test: Plasma leptin levels by commercial radioimmunoassay kit; format: in vivo, rat; conditions: rats, 10.0 mg/kg orally once daily, end of 14 week study, vs control
Method: as §1
At the end of the experiment, rats were killed by exposure to carbon dioxide. Blood was collected by cardiac puncture, and rats were shaved and eviscerated. Retroperitoneal white adipose tissue, epidydimal white adipose tissue, adrenal gland, liver, kidney and testes were rapidly dissected and weighed. Plasma leptin levels were measured using a commercial radioimmunoassay kit.

[4] = Terminal tissue and organ weights (fat pads, adrenal gland, liver, kidney, testes); conditions: 10.0 mg/kg orally once daily, end of 14 week study

## C#CCN(C)[C@H](C)Cc1ccccc1 [L-selegiline]
[1]; 10.0 mg/kg L-selegiline hydrochloride orally by gavage once daily, 14 week study
  lower weight gain compared to control rats: 14%
[1]; 10.0 mg/kg orally once daily, 14 week study
  weight gain less than untreated counterparts: approximately 34 g
[1]; 10.0 mg/kg orally once daily, 14 weeks
  food intake versus control group: comparable
[2]; 14 weeks
  adipose tissue gain less than that of untreated control rats: 94%
[2]; rats, 14 weeks
  share of the overall 34 gram weight loss accounted for by body fat reduction: 94%
[2]; rats, terminal carcass
  lean body mass: no reduction
  whole carcass water content: no reduction
[3]
  plasma leptin levels reduced: 41%
[4]
  epidydimal fat pad weighed less than in control rats: 23%
  retroperitoneal fat pad weighed less than in control rats: 27%
[4]; rats
  weight of non-fat organs (adrenal gland, liver, kidney, testes): did not weigh less
